Literature values, collected in patent publication US12433860B2, “Treatment of multiple sclerosis comprising DHODH inhibitors” (Immunic AG, priority 2021, dated 2025).

Test system: patients with active rheumatoid arthritis
Conditions: 35 mg once-daily for 13 weeks; cited from earlier work

## COc1cccc(-c2ccc(NC(=O)C3=C(C(=O)O)CCC3)c(F)c2)c1 [vidofludimus, 2-((3-fluoro-3′-methoxy-[1,1′-biphenyl]-4-yl)carbamoyl)cyclopent-1-enecarboxylic acid]
  diarrhoea, alopecia, neutropenia or liver enzyme elevations: no notable increases
  safety profile as compared to placebo: overall similar safety profile as compared to placebo
